“Also recorded” adds a separate entry of the source.
Tests used:
[1] = target: dynamin I binding to SH3 domains of grb2, amphiphysin I, endophilin I (Homo sapiens, UniProt Q05193); assay: Pull-down of dynamin I with SH3 domains; conditions: 10, 40 and 100 µM 4a
Experimental: Recombinant human dynamin I was expressed in insect cells (SF21). Cells were lysed and sonicated in 20 mM HEPES buffer with 250 mM NaCl. The lysates were diluted in 20 mM HEPES buffer alone to obtain a final 50 mM NaCl concentration. This diluted lysate was used for pull-downs with 6 µg of GST-amphiphysin1 SH3, GST-endophilin SH3 or GST-grb2 SH3 (all recombinantly expressed in bacteria) immobilised on glutathione sepharose beads. Incubations were done in the presence or absence of 10, 40 and 100 µM 4a for 1 hr at 10°C. The GSH beads were then washed three times with ice cold PBS and the bound proteins were separated on 12% SDS-PAGE gels and visualised using Coomassie Blue.

grb2-stimulated dynamin = test system: grb2-stimulated dynamin; parameters: method as in PMID 16740485; conditions: no detergent, read-out: previously estimated IC50 for dynasore; cited from earlier work
[2] = target: microtubule-stimulated dynamin I (Ovis aries, UniProt A0ACI6PDC7); assay: Microtubule-stimulated (helical) dynamin I GTPase assay; type: biochemical, sheep; conditions: presence of Tween-80
Chain of microtubule-stimulated dynamin I (A0ACI6PDC7 entry or part of it): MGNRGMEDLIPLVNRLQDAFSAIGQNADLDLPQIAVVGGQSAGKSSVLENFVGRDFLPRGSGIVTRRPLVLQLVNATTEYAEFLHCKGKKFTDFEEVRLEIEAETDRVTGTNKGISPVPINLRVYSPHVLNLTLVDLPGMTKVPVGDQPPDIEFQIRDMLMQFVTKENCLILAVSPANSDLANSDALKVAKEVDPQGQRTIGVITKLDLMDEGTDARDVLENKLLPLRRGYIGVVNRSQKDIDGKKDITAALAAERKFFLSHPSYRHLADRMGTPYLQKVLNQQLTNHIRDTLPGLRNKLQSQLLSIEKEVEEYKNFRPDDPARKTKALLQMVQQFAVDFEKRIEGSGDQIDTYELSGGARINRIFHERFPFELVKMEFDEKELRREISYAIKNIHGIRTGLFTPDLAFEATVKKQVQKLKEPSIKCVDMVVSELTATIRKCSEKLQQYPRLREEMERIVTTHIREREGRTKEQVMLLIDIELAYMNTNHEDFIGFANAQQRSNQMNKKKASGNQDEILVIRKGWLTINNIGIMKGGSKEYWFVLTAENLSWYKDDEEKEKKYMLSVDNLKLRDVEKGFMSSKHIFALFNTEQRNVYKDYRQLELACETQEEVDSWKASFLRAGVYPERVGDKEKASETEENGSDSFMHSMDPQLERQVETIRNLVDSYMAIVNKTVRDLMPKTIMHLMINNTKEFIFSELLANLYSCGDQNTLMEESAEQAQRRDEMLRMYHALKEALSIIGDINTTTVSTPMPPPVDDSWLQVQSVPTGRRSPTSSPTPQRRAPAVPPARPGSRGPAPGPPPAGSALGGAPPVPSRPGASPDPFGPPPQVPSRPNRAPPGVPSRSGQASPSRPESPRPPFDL
Experimental: The Malachite Green colorimetric GTPase assay was as described 10. Dynamin I activity was measured in its SAI activity state or was stimulated by three different methods. As each stimulus activates dynamin to different extents, each assay required different dynamin concentrations. First, maximal dynamin activity was stimulated by sonicated PS liposomes 10. Purified dynamin I (10–20 nM, diluted in: 6 mM Tris–HCl, 20 mM NaCl and 0.01% Tween 80, pH 7.4) was incubated in 96‐well plates in GTPase buffer (5 mM Tris–HCl, 10 mM NaCl, 2 mM Mg^2+, 0.05% Tween 80, pH 7.4, 1 µg/mL leupeptin and 0.1 mM PMSF) and GTP 0.3 mM in the presence of test compound for 30 min at 37°C in a final assay volume of 150 μL. Reactions were terminated with 10 μL of 0.5 M ethylenediaminetetraacetic acid (EDTA) pH 7.4 and Malachite Green solution (40 μL: 2% w/v ammonium molybdate tetrahydrate, 0.15% w/v malachite green and 4 M HCl) was added for 5 min. Second, dynamin (20 nM) was stimulated by 10 µg/mL of taxol‐stabilized preformed bovine brain microtubules (Cytoskeleton, Inc) using the same protocol. […] Finally, dynamin (500 nM) SAI activity was measured using high concentrations of dynamin, which promote its cooperative self‐assembly into rings (but not helices) 26. […] After the Vmax and Km values were determined, the data were transformed using the Lineweaver–Burke equation, 1/v = 1/Vmax + (Km/Vmax)(1/[S]).

Chain of dynamin I binding to SH3 domains of grb2, amphiphysin I, endophilin I (Q05193 whole entry, the tested form may be a part): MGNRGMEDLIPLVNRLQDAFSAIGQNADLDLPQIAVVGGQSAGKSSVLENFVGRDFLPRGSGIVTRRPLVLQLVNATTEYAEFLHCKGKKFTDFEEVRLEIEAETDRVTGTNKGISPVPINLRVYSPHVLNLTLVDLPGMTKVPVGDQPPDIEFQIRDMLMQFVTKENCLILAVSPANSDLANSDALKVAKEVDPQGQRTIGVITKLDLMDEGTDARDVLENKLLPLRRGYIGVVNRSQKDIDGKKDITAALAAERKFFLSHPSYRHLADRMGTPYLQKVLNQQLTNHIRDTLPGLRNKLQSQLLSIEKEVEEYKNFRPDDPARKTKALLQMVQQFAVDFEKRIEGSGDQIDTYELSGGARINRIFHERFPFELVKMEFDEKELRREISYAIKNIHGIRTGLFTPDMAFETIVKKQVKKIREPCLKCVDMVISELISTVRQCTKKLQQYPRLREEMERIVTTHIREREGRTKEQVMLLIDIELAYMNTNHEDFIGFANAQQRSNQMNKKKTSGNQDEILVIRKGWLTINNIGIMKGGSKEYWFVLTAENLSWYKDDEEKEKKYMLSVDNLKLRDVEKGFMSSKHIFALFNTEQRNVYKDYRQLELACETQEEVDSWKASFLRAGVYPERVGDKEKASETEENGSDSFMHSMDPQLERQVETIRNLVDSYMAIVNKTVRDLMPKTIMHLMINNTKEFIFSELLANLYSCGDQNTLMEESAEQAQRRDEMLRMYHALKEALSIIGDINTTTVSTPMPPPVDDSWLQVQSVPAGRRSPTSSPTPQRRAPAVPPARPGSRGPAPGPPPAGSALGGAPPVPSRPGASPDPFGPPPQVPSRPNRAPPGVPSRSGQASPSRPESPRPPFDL

With `O=C(N/N=C/c1cc(O)c(O)cc1O)c1cc2ccccc2cc1O` [4a, (E)-3-Hydroxy-N'-(2,4,5-trihydroxybenzylidene) -2-naphthohydrazide] the “effect on dynamin I binding to SH3 domains” value [1] was “did not disrupt the binding; also recorded: no effect”.

In the case of `O=C(N/N=C/c1ccc(O)c(O)c1)c1cc2ccccc2cc1O` [Dynasore, (E)-N'-(3,4-Dihydroxybenzylidene)-3-hydroxy-2-naphthohydrazide], the IC50 (grb2-stimulated dynamin) is listed as ~15 µM and the “block of microtubule-stimulated dynamin activity” value [2] is listed as “did not block”.
